Among the data in ChEMBL document CHEMBL3525952, “A Baeyer-Villiger oxidation specifically catalyzed by human flavin-containing monooxygenase 5” (Drug Metab Dispos, 2011) are Drug metabolism values, retold here.

Data set [1] relates to Liver microsome. Kind of data set: Drug metabolism in human liver microsomes assessed as ER-879123 formation at 10 uM after 60 mins in presence of NADH and carboxylesterase inhibitor BNPP by LC-MS/MS method. Format: ADME. To be noted: 1 h.
Data set [2] addresses T1, Flavin-containing monooxygenase 3 (Homo sapiens, UniProt P31513).
T1 sequence (P31513 whole entry): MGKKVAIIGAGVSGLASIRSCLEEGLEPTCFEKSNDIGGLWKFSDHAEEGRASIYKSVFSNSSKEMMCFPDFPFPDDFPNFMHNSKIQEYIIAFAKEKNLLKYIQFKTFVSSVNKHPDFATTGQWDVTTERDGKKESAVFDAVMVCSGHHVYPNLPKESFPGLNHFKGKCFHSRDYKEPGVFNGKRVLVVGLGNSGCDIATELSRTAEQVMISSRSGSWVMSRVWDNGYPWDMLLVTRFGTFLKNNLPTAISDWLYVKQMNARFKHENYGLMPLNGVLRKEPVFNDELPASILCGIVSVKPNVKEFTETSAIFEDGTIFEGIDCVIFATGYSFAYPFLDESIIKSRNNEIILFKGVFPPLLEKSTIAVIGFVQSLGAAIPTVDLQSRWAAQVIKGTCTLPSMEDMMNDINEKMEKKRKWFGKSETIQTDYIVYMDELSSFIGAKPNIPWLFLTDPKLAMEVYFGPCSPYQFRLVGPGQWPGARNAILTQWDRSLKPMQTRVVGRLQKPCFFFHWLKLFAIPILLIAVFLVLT
Kind of data set: Drug metabolism assessed as human recombinant FMO3-mediated ER-879123 formation in presence NADH at 10 uM after 60 mins by LC-MS/MS method. To be noted: recombinant enzyme, 1 h. Format: ADME.

Data set [3] has as its system Liver microsome. Kind of data set: Drug metabolism in 50 degC treated human liver microsomes assessed as ER-879123 formation at 10 uM after 60 mins in absence of NAD+ by LC-MS/MS method. The class given is ADME. To be noted: 1 h.
The target of data set [4] is T1, Flavin-containing monooxygenase 3. The data set can be described thus: Drug metabolism assessed as human recombinant FMO3-mediated ER-879123 formation at 10 uM after 60 mins by LC-MS/MS method in presence of NADPH. To be noted: recombinant enzyme, 1 h. Format: ADME.
Data set [5] has as its system Liver microsome. Kind of data set: Drug metabolism in dog liver microsomes assessed as ER-879123 formation at 10 uM after 60 mins in presence of NADH by LC-MS/MS method. The class given is ADME, Canis lupus familiaris. To be noted: 1 h.
For data set [6], the system named is Liver microsome. The data set can be described thus: Drug metabolism in 50 degC treated dog liver microsomes assessed as ER-879123 formation at 10 uM after 60 mins in absence of NAD+ by LC-MS/MS method. Format: ADME, Canis lupus familiaris. To be noted: 1 h.
Data set [7] concerns the target T2, Flavin-containing monooxygenase 5 (Homo sapiens, UniProt P49326).
T2 sequence (P49326 whole entry): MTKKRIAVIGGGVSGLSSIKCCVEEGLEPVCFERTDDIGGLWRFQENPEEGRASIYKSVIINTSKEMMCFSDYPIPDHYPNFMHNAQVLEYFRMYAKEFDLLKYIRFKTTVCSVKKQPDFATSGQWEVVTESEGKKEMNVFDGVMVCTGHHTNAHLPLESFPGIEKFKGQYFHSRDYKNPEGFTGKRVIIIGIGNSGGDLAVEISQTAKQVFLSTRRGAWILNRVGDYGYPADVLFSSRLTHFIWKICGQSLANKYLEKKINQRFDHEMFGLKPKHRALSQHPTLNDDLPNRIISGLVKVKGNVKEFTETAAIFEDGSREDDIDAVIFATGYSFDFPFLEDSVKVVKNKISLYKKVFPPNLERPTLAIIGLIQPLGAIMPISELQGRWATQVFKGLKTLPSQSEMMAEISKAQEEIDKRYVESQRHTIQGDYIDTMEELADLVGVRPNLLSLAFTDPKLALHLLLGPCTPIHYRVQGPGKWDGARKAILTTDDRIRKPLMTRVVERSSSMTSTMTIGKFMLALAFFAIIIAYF
The data set can be described thus: Drug metabolism assessed as human recombinant FMO5-mediated ER-879123 formation at 10 uM after 60 mins by LC-MS/MS method in presence of NADPH. To be noted: recombinant enzyme, 1 h. The class given is ADME.

Data set [8] deals with Liver microsome. Kind of data set: Drug metabolism in dog liver microsomes assessed as ER-879123 formation at 10 uM after 60 mins in presence of NADH and carboxylesterase inhibitor BNPP by LC-MS/MS method. Format: ADME, Canis lupus familiaris. To be noted: 1 h.
Data set [9] addresses T2, Flavin-containing monooxygenase 5. Kind of data set: Drug metabolism assessed as human recombinant FMO5-mediated ER-879123 formation in presence NADH at 10 uM after 60 mins by LC-MS/MS method. To be noted: recombinant enzyme, 1 h. Format: ADME.
Data set [10] concerns the target T3, Flavin-containing monooxygenase 1 (Homo sapiens, UniProt Q01740).
T3 sequence (Q01740 whole entry): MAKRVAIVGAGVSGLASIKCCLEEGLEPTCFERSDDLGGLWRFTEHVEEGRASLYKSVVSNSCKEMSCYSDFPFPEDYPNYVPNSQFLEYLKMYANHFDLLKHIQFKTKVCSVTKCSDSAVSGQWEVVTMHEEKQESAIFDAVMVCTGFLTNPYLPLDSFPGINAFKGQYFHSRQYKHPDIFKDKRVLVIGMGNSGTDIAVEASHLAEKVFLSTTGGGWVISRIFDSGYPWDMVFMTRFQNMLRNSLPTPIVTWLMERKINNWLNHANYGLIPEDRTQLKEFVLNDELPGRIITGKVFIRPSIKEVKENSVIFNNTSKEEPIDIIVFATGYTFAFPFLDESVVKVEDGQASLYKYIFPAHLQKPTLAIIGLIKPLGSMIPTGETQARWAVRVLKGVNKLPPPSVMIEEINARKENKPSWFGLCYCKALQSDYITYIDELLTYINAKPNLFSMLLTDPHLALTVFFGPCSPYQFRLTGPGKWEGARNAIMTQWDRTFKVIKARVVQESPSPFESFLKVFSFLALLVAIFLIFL
The data set can be described thus: Drug metabolism assessed as human recombinant FMO1-mediated ER-879123 formation at 10 uM after 60 mins by LC-MS/MS method in presence of NADPH. The class given is ADME. To be noted: recombinant enzyme, 1 h.

Data set [11] concerns Liver microsome. The data set can be described thus: Drug metabolism in human liver microsomes assessed as ER-879123 formation at 10 uM after 60 mins in presence of NADH by LC-MS/MS method. The class given is ADME. To be noted: 1 h.
For data set [12], the system named is Liver microsome. The data set can be described thus: Drug metabolism in dog liver microsomes assessed as ER-879123 formation at 10 uM after 60 mins in presence of NADH and FMO1 and FMO3 substrate/inhibitor methimazole by LC-MS/MS method. The class given is ADME, Canis lupus familiaris. To be noted: 1 h.
For data set [13], the target named is T3, Flavin-containing monooxygenase 1. The data set can be described thus: Drug metabolism assessed as human recombinant FMO1-mediated ER-879123 formation in presence NADH at 10 uM after 60 mins by LC-MS/MS method. To be noted: recombinant enzyme, 1 h. The class given is ADME.
Data set [14] deals with Liver microsome. The data set can be described thus: Drug metabolism in human liver microsomes assessed as ER-879123 formation at 10 uM after 60 mins in presence of NADH and FMO1 and FMO3 substrate/inhibitor methimazole by LC-MS/MS method. The class given is ADME. To be noted: 1 h.

Consider `O=C1CCN(Cc2ccc3c(c2)-c2n[nH]c(=O)c4cccc(c24)O3)CC1`, for which the Drug metabolism entry with Liver microsome [1] is listed as “metabolite_not_detected”; in [2] it was “metabolite_not_detected”; with Liver microsome [3], “metabolite_not_detected”; in data set [4], “metabolite_not_detected”; in the data set on Liver microsome [5], “metabolite_detected”; in the data set with Liver microsome [6], “metabolite_not_detected”. The Drug metabolism result in [7] is recorded as “metabolite_detected”; with Liver microsome [8] it was “metabolite_not_detected”; in [9], “metabolite_detected”; in data set [10], “metabolite_not_detected”; with Liver microsome [11] it was “metabolite_detected”; in the data set with Liver microsome [12], “metabolite_detected”. Moreover, the Drug metabolism entry is listed as “metabolite_not_detected” in data set [13] and “metabolite_detected” in the data set on Liver microsome [14].
